Test results as given in patent publication US7544703B2, “Cyclic compound having 4-pyridylalkylthio group having substituted or unsubstituted amino group introduced therein” (Santen Pharmaceutical Co., Ltd., priority 2004, dated 2009).
Where a name gives a salt, the structure may show the parent alone.

Legend:
[1] = test system: B16 cells; assay: Tumor growth inhibitory action test using cancer models in mice (B16 cells); format: in vivo; conditions: C57BL/6N mouse, B16 cells intradermal; 100 mg/kg/day oral once a day, day 0 to day 10; average of 9 mice per group; read-out: Tumor tissue weight inhibition rate (%)
Description: A tumor growth inhibitory action test of the compounds of the present invention was performed using a tumor growth model in mice, which is one of the widely-used methods of evaluating in vivo anticancer effects of drugs.
As one of the widely-used methods of evaluating anticancer effects of drugs, a tumor growth inhibitory action test using cancer models in mice has been reported in Cancer Res., 59, 5209-5218 (1999). According to the method described in the above-mentioned document, a tumor growth inhibitory action test of the compounds of the present invention was performed, the tumor tissue weight inhibition rate was calculated, and the anticancer effect of each of the compounds of the present invention was evaluated using the obtained rate as an index.
A 1% aqueous methyl cellulose solution was added to each test compound to suspend it with a sonicator, whereby a 10 mg/mL test compound suspension was prepared.
Physiological saline was added to B16 cells, whereby a 3.3×10^7 cells/mL B16 cell suspension was prepared.
• 1) The back of each mouse (female, 6 weeks of age, C57BL/6N mouse) was depilated using a depilatory under Nembutal anesthesia. • 2) Several days after the depilation, the B16 cell suspension (300 μL) was injected intradermally into the back of the mouse under Nembutal anesthesia. • 3) From the B16 cell injection day (i.e. on day 0) to day 10, the test compound suspension (100 mg/kg/day) was orally administered once a day consecutively. • 4) Ten days after the injection of the cells, the mouse was euthanized with CO2 gas. • 5) A tumor tissue was enucleated from the mouse, and the weight of the tumor tissue was measured with an electronic balance. • 6) A test was performed in the same manner as in 1) to 5) except that the 1% aqueous methyl cellulose solution was used instead of the test compound suspension, and the result was used as a control. (Calculation of Tumor Tissue Weight Inhibition Rate)
A tumor tissue weight inhibition rate (the average of 9 mice per group), which was used as an index of anticancer effect, was calculated according to the following calculation equation. Tumor tissue weight inhibition rate (%)=100−(Mx/Mo)×100 (Calculation Equation) Mo: Tumor tissue weight of control group Mx: Tumor tissue weight of test compound solution administration group (Test Results and Discussion)

[2] = test system: choroidal neovascularization models in rats; assay: Neovascularization incidence test using laser-induced choroidal neovascularization models in rats; format: in vivo; conditions: 168 h; Brown Norway rat, krypton laser photocoagulation; 30 mg/kg/day oral once a day for 7 days; fluorescein fundus photography on day 7; average of 3 to 4 rats and 6 to 8 eyes; read-out: Ratio of neovascularization incidence rate (% of Control)
Description: A neovascularization incidence test of the compounds of the present invention was performed using a choroidal neovascularization model in rats, which is one of the widely-used methods of evaluating in vivo choroidal neovascularization inhibitory effects of drugs.
As one of the widely-used methods of evaluating choroidal neovascularization inhibitory effects of drugs, a neovascularization incidence test using choroidal neovascularization models in rats was reported in Graefe's Arch. Cli. Exp. Ophthalmol., 235, 313-319 (1997). According to the method described in the above-mentioned document, a neovascularization incidence test of the compounds of the present invention was performed, the ratio of neovascularization incidence rate of each of the compounds of the present invention administration groups to a neovascularization incidence rate of vehicle administration group (control group) was calculated, and the choroidal neovascularization inhibitory effect of each of the compounds of the present invention was evaluated using the obtained ratio as an index.
A 1% aqueous methyl cellulose solution was added to each test compound to suspend it, whereby a 6 mg/10 mL test compound suspension was prepared.
• 1) A 7:1 mixed solution (1 mL/kg) of a 5% ketamine hydrochloride injection and a 2% xylazine hydrochloride injection was administered intramuscularly to rats (Brown Norway male rat, 8 weeks of age, weight: 200 to 250 g) to anesthetize them systemically. • 2) A tropicamide-phenylephrine hydrochloride ophthalmic solution (trade name: Mydrin-P) was instilled into eyes to cause mydriasis, and then photocoagulation was performed in a Bruch's membrane of each rat using a krypton laser photocoagulation apparatus.
The laser photocoagulation was performed at 8 spots per eye sparsely avoiding thick retinal vessels in a posterior section of ocular fundus and focusing on the deep layer of the retina. Photocoagulation conditions were adjusted to 100 μm of spot size, 100 mW of intensity and 0.1 sec. dulation. • 3) After the photocoagulation, the ocular fundus was photographed to confirm photocoagulation (laser irradiation) sites. (Method of Test and Method of Measurement) • 1) From the laser photocoagulation day (i.e. on day 0) to day 6, the test compound suspension (30 mg/kg/day) was administered orally once a day for 7 consecutive days. • 2) As the vehicle administration group (control group), a test was performed in the same manner as in 1) except that the 1% aqueous methyl cellulose solution was used instead of the test compound suspension, and the result was used as a control. (Method of Evaluation) • 1) On day 7 after the photocoagulation, 0.1 mL of a 10% aqueous fluorescein solution was injected into a tail vein of the rat, and fluorescein fundus photography was performed. • 2) Next, in the fluorescein fundus photography, a spot where fluorescence leak was not observed was judged as negative, and a spot where fluorescence leak was observed was judged as positive. Photocoagulation sites where a little fluorescence leak was observed were judged as positive when two such sites are present. • 3) The neovascularization incidence rate was calculated according to the calculation equation 1. The ratio of the neovascularization incidence rate of the test compound administration group to that of the vehicle administration group was calculated according to the calculation equation 2 using the neovascularization incidence rate of the respective administration groups. […]

SMILES | inhibition in vivo at 100 mg/kg/day [1] [%] | response vs control in vivo at 30 mg/kg/day [2] [%]
Cc1cc(C)cc(NC(=O)c2cccnc2SCc2ccnc(N)c2)c1 [Compound 3-1, 2-(2-Aminopyridin-4-ylmethylthio)-N-(3,5-dimethylphenyl)pyridine-3-carboxamide monohydrochloride] | 70 | 12
CC(=O)Nc1cc(CSc2ncccc2C(=O)Nc2ccc(OC(F)(F)F)cc2)ccn1 [Compound 4-11, 2-(2-Acetylaminopyridin-4-ylmethylthio)-N-(4-trifluoromethoxyphenyl)pyridine-3-carboxamide] | 86 | 0
CC(=O)Nc1cc(CSc2ncccc2C(=O)Nc2cc(C)cc(C)c2)ccn1 [Compound 4-1, 2-(2-Acetylaminopyridin-4-ylmethylthio)-N-(3,5-dimethylphenyl)pyridine-3-carboxamide] | 75 | 3
CC(=O)OCC(=O)Nc1cc(CSc2ncccc2C(=O)Nc2cc(C)cc(C)c2)ccn1 [Compound 10-1, 2-(2-Acetoxyacetylaminopyridin-4-ylmethylthio)-N-(3,5-dimethylphenyl)pyridine-3-carboxamide] | 54 | 11
CC(=O)Nc1cc(CSc2ncccc2C(=O)Nc2ccc(Cl)cc2)ccn1 [Compound 4-10, 2-(2-Acetylaminopyridin-4-ylmethylthio)-N-(4-chlorophenyl)pyridine-3-carboxamide] | 75 | 9
CNC(=O)Nc1cc(CSc2ncccc2C(=O)Nc2cc(C)cc(C)c2)ccn1 [Compound 9-1, N-(3,5-Dimethylphenyl)-2-[2-(N′-methylureido)pyridin-4-ylmethylthio]pyridine-3-carboxamide] | 43 | 8
Nc1cc(CSc2ncccc2C(=O)Nc2ccc(OC(F)(F)F)cc2)ccn1 [Compound 3-10, 2-(2-Aminopyridin-4-ylmethylthio)-N-(4-trifluoromethoxyphenyl)pyridine-3-carboxamide] | 85 | 7
O=C(CO)Nc1cc(CSc2ncccc2C(=O)Nc2ccc(OC(F)(F)F)cc2)ccn1 [Compound 12-1, 2-(2-Hydroxyacetylaminopyridin-4-ylmethylthio)-N-(4-trifluoromethoxyphenyl)pyridine-3-carboxamide] | 85 | 6
CNc1cc(CSc2ncccc2C(=O)Nc2ccc(OC(F)(F)F)cc2)ccn1 [Compound 3-8, 2-(2-Methylaminopyridin-4-ylmethylthio)-N-(4-trifluoromethoxyphenyl)pyridine-3-carboxamide monohydrochloride] | 80 | 6
